Test results published in the NIST ThermoML archive (doi:10.1021/je050092d).

Experiment: molar heat capacity at constant pressure
Details: 101.33 kPa, Vacuum adiabatic calorimetry

CCCCCCCCCCCCCCCCCC(=O)OCC(COC(=O)CCCCCCCCCCCCCCCCC)OC(=O)CCCCCCCCCCCCCCCCC [glycerol trioctadecanoate]
Details	molar heat capacity at constant pressure [J/K/mol]
9.6 K, Crystal	10.7
9.65 K, Crystal	8.023
9.71 K, Crystal	12.48
10.85 K, Crystal	22.29
11.58 K, Crystal	22.29
12.51 K, Crystal	26.74
13.59 K, Crystal	30.31
13.96 K, Crystal	32.98
15.41 K, Crystal	39.23
15.56 K, Crystal	43.68
17.3 K, Crystal	62.4
17.41 K, Crystal	50.81
19.33 K, Crystal	69.54
19.45 K, Crystal	65.97
21.54 K, Crystal	79.34
21.58 K, Crystal	82.02
23.71 K, Crystal	98.06
23.86 K, Crystal	100.74
25.95 K, Crystal	115
26.19 K, Crystal	116.78
28.25 K, Crystal	135.5
28.56 K, Crystal	137.29
30.62 K, Crystal	156.9
30.93 K, Crystal	149.77
30.99 K, Crystal	158.68
33.29 K, Crystal	184.54
35.42 K, Crystal	205.04
37.51 K, Crystal	215.74
39.73 K, Crystal	224.65
41.97 K, Crystal	239.81
44.25 K, Crystal	262.99
46.55 K, Crystal	273.68
48.96 K, Crystal	294.19
51.41 K, Crystal	312.02
53.88 K, Crystal	332.52
56.39 K, Crystal	354.81
58.93 K, Crystal	372.64
61.51 K, Crystal	394.03
64.13 K, Crystal	415.43
66.78 K, Crystal	434.15
69.45 K, Crystal	451.98
72.14 K, Crystal	468.03
74.85 K, Crystal	484.07
77.59 K, Crystal	501.01
80.34 K, Crystal	514.38
83.1 K, Crystal	530.43
85.71 K, Crystal	540.24
85.88 K, Crystal	545.59
88.61 K, Crystal	554.5
88.67 K, Crystal	558.07
91.44 K, Crystal	566.09
91.47 K, Crystal	572.33
94.27 K, Crystal	578.57
97.11 K, Crystal	585.7
99.95 K, Crystal	597.29
102.8 K, Crystal	610.66
105.65 K, Crystal	612.45
108.5 K, Crystal	616.01
111.36 K, Crystal	627.6
114.22 K, Crystal	640.08
117.09 K, Crystal	651.67
119.95 K, Crystal	661.48
122.82 K, Crystal	671.28
125.7 K, Crystal	680.2
128.58 K, Crystal	690.9
131.46 K, Crystal	729.23
134.35 K, Crystal	729.23
137.23 K, Crystal	716.75
140.13 K, Crystal	728.34
143.02 K, Crystal	739.93
145.92 K, Crystal	759.54
148.83 K, Crystal	769.35
151.73 K, Crystal	778.26
154.64 K, Crystal	790.74
157.55 K, Crystal	793.42
160.46 K, Crystal	818.38
163.37 K, Crystal	826.4
166.29 K, Crystal	837.99
169.2 K, Crystal	848.69
172.12 K, Crystal	856.71
175.04 K, Crystal	870.08
177.95 K, Crystal	878.11
178.91 K, Metastable crystal	900.39
180.87 K, Crystal	890.59
181.6 K, Metastable crystal	918.22
183.79 K, Crystal	901.29
184.26 K, Metastable crystal	942.29
186.7 K, Crystal	921.79
186.88 K, Metastable crystal	974.39
189.48 K, Metastable crystal	985.98
189.62 K, Crystal	938.73
192.06 K, Metastable crystal	995.78
192.54 K, Crystal	957.45
194.63 K, Metastable crystal	998.46
195.45 K, Crystal	972.6
197.18 K, Metastable crystal	1005.6
198.37 K, Crystal	976.17
199.71 K, Metastable crystal	1029.7
201.29 K, Crystal	997.57
202.23 K, Metastable crystal	1053.7
204.21 K, Crystal	1008.3
204.74 K, Metastable crystal	1074.2
207.13 K, Crystal	1014.5
207.23 K, Metastable crystal	1089.4
209.71 K, Metastable crystal	1083.1
210.05 K, Crystal	1023.4
212.17 K, Metastable crystal	1091.2
212.96 K, Crystal	1029.7
214.62 K, Metastable crystal	1110.8
215.88 K, Crystal	1037.7
217.06 K, Metastable crystal	1127.7
218.8 K, Crystal	1044.8
219.48 K, Metastable crystal	1147.3
221.72 K, Crystal	1048.4
221.9 K, Metastable crystal	1157.1
224.3 K, Metastable crystal	1170.5
224.64 K, Crystal	1057.3
226.69 K, Metastable crystal	1185.7
227.55 K, Crystal	1067.1
229.06 K, Metastable crystal	1200.8
230.47 K, Crystal	1080.5
231.43 K, Metastable crystal	1217.8
233.39 K, Crystal	1094.7
233.79 K, Metastable crystal	1238.3
236.13 K, Metastable crystal	1256.1
236.3 K, Crystal	1107.2
238.46 K, Metastable crystal	1271.3
239.22 K, Crystal	1121.5
240.79 K, Metastable crystal	1288.2
242.14 K, Crystal	1134
243.1 K, Metastable crystal	1307.8
245.06 K, Crystal	1149.1
245.41 K, Metastable crystal	1327.4
247.71 K, Metastable crystal	1339.9
247.98 K, Crystal	1165.2
250 K, Metastable crystal	1358.6
250.9 K, Crystal	1177.6
252.28 K, Metastable crystal	1376.4
253.82 K, Crystal	1192.8
254.56 K, Metastable crystal	1397.8
256.74 K, Crystal	1208
256.83 K, Metastable crystal	1413
259.09 K, Metastable crystal	1426.4
259.67 K, Crystal	1222.2
261.34 K, Metastable crystal	1444.2
262.6 K, Crystal	1238.3
263.59 K, Metastable crystal	1461.1
265.53 K, Crystal	1254.3
265.83 K, Metastable crystal	1479
268.07 K, Metastable crystal	1495
268.46 K, Crystal	1271.3
270.3 K, Metastable crystal	1515.5
271.39 K, Crystal	1285.5
272.53 K, Metastable crystal	1532.5
274.33 K, Crystal	1301.6
274.75 K, Metastable crystal	1553
276.96 K, Metastable crystal	1577.9
277.27 K, Crystal	1327.4
279.18 K, Metastable crystal	1590.4
280.21 K, Crystal	1339
281.39 K, Metastable crystal	1610
283.16 K, Crystal	1355
283.59 K, Metastable crystal	1629.6
285.8 K, Metastable crystal	1647.5
286.11 K, Crystal	1371.1
288 K, Metastable crystal	1670.6
289.07 K, Crystal	1387.1
290.2 K, Metastable crystal	1689.4
292.03 K, Crystal	1412.1
292.39 K, Metastable crystal	1716.1
294.59 K, Metastable crystal	1733
294.99 K, Crystal	1428.2
296.78 K, Metastable crystal	1763.3
297.32 K, Crystal	1434.4
297.96 K, Crystal	1448.7
298.4 K, Crystal	1436.2
298.97 K, Metastable crystal	1787.4
299.84 K, Crystal	1454.9
300.94 K, Crystal	1466.5
301.16 K, Metastable crystal	1815.9
301.82 K, Crystal	1473.6
303.79 K, Crystal	1492.3
304.05 K, Crystal	1488.8
305.75 K, Crystal	1508.4
306.72 K, Crystal	1514.6
307.7 K, Crystal	1523.5
308.94 K, Crystal	1529.8
309.65 K, Crystal	1536
311.17 K, Crystal	1544
311.6 K, Crystal	1552.1
313.39 K, Crystal	1561
313.55 K, Crystal	1569.9
315.49 K, Crystal	1579.7
315.61 K, Crystal	1576.1
317.43 K, Crystal	1598.4
317.83 K, Crystal	1598.4
319.37 K, Crystal	1627.8
320.05 K, Crystal	1624.3
321.32 K, Crystal	1642.1
322.28 K, Crystal	1645.7
323.27 K, Crystal	1659.9
324.5 K, Crystal	1666.2
325.23 K, Crystal	1682.2
326.72 K, Crystal	1692.9
327.2 K, Crystal	1700.1
328.95 K, Crystal	1713.4
329.17 K, Crystal	1721.4
351.37 K, Liquid	1971.1
353.63 K, Liquid	1975.5
355.89 K, Liquid	1981.8
358.16 K, Liquid	1986.2
360.45 K, Liquid	1992.5
362.74 K, Liquid	1997.8
365.05 K, Liquid	2004.9
367.37 K, Liquid	2007.6
369.71 K, Liquid	2015.6
